{
  "source": "patent US20080233216A1",
  "about": "“Composition Comprising the Extract of Siegesbeckiae Herba For Preventing and Treating Arthritis and the Use Thereof” (Industry Academic Cooperation Foundation Of Kyunghee …, priority 2006, published 2008)",
  "type_in_all_cases": "in vivo",
  "key": {"[1]": {"test_system": "Male ICR mouse", "test": "Arachidonic acid induced ear edema", "settings": "100 mg/kg oral; ear thickness 1 hour after arachidonic acid", "description": "In order to determine the anti-inflammatory activity of inventive extract, following test using arachidonic acid-induced ear edema was performed according to method disclosed in the literature (Zhou H et al., Biol. Pharm. Bull., 29(2) pp 253-260, 2006).\nMale ICR mouse (Jung Ang laboratory animal, Japan) weighing from 20 to 30 g was used as an experimental animal and each group consists of 10 mice. […] After 1 hour, the increased rate of ear thickness was calculated by comparing with that of left ear and the result was shown in Table 3."}, "[2]": {"test_system": "Male ICR mouse", "test": "Croton oil induced ear oedema", "settings": "100 mg/kg oral; ear thickness 4 hours after 2.5% croton oil", "description": "In order to determine the anti-inflammatory activity of inventive extract, following test using croton oil-induced ear edema was performed according to method disclosed in the literature (Zhang B et al., Eur. J. Pharmacol., 530(1-2), pp 166-171, 2006).\nMale ICR mouse (Jung Ang laboratory animal, Japan) weighing from 20 to 30 g was used as an experimental animal and each group consists of 6 mice. […] After 4 hours, the increased rate of ear thickness was calculated by comparing with that of left ear and the result was shown in Table 4."}, "[3]": {"test_system": "Male ICR mouse", "test": "Acetic acid induced writhing analgesia test", "settings": "100 mg/kg oral, 1 h before 0.7% acetic acid; writhing counted 10 min", "description": "In order to determine the analgesic activity of the inventive extract of the present invention, acetic acid-induced writhing test was performed according to the method disclosed in the literature as follows (Whittle B A, Brit. J. Pharmacol. Chemother., 22, pp 246-253, 1964).\nMale ICR mouse (Jung Ang laboratory animal, Japan) weighing from 20 to 25 g was acclimated for several days and each group consists of 10 mice."}},
  "data": [
    {"compound": "Cc1ccc(-c2cc(C(F)(F)F)nn2-c2ccc(S(N)(=O)=O)cc2)cc1", "note": "[Celecoxib]", "values": [
      {"measurement": "Inhibition rate of edema (%)", "setting": "[1]", "result": 25.29, "unit": "%"},
      {"measurement": "Inhibition rate of edema (%)", "setting": "[2]", "result": 33.12, "unit": "%"},
      {"measurement": "Inhibition of writhing (%)", "setting": "[3]", "result": 61.9, "unit": "%"}
    ]}
  ]
}
